Data: US9611267B2, “Substituted tricyclic compounds as FGFR inhibitors” (Incyte Corporation, priority 2012, dated 2017)
pIC50: −log10 of the molar value.

Tests used:
Assay type in all cases: biochemical
[1] = biological target: FGFR2 (Homo sapiens (Human), UniProt P21802); test: FGFR enzymatic assay (FRET peptide phosphorylation), FGFR2; conditions: FGFR2 enzyme 0.01 nM, ATP 100 μM
Procedure, shortened: (§1)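 IC50 values were obtained from variable-slope sigmoidal dose-response fitting of a FRET read-out of peptide phosphorylation. The buffer, described for FGFR3, was 50 mM HEPES pH 7.5 with MgCl2, EGTA, Tween-20 and DTT.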

[2] = biological target: FGFR3 (Homo sapiens (Human), UniProt P22607); test: FGFR enzymatic assay (FRET peptide phosphorylation), FGFR3; conditions: FGFR3 enzyme (Millipore), ATP 140 μM
Procedure, shortened: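 After 5-10 min pre-incubation of FGFR3 with serially diluted compound in pH 7.5 HEPES/MgCl2/EGTA/DTT buffer, the reaction proceeded 1 hr at 25° C. Phosphorylated peptide was detected by FRET, and IC50 was fitted with a variable-slope sigmoid.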

[3] = biological target: FGFR1 (Homo sapiens (Human), UniProt P11362); test: FGFR enzymatic assay (FRET peptide phosphorylation), FGFR1; conditions: FGFR1 enzyme 0.02 nM, ATP 210 μM
Procedure, shortened: as §1

Measured: pIC50

FGFR1, sequence (P11362 22-822): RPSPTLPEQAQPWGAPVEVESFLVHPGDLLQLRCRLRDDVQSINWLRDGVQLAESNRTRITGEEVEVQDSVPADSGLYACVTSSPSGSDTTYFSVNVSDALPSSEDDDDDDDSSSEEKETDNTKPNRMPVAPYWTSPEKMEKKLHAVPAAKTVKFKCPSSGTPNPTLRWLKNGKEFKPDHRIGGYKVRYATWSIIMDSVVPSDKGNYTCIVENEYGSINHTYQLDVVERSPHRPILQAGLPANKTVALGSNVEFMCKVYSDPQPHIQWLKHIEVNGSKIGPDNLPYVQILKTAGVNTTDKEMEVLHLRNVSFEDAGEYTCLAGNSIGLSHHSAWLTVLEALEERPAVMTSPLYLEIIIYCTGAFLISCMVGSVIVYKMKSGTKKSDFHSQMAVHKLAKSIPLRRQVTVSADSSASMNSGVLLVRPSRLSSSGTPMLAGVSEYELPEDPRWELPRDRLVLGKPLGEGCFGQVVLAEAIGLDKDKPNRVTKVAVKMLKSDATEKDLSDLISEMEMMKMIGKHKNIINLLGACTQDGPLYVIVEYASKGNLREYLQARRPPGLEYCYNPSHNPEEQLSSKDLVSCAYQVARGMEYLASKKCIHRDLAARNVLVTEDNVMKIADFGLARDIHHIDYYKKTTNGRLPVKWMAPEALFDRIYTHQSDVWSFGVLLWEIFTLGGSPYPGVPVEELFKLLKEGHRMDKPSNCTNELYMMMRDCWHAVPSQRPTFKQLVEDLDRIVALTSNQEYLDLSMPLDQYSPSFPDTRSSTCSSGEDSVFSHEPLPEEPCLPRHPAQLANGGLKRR
FGFR3, sequence (P22607 23-806): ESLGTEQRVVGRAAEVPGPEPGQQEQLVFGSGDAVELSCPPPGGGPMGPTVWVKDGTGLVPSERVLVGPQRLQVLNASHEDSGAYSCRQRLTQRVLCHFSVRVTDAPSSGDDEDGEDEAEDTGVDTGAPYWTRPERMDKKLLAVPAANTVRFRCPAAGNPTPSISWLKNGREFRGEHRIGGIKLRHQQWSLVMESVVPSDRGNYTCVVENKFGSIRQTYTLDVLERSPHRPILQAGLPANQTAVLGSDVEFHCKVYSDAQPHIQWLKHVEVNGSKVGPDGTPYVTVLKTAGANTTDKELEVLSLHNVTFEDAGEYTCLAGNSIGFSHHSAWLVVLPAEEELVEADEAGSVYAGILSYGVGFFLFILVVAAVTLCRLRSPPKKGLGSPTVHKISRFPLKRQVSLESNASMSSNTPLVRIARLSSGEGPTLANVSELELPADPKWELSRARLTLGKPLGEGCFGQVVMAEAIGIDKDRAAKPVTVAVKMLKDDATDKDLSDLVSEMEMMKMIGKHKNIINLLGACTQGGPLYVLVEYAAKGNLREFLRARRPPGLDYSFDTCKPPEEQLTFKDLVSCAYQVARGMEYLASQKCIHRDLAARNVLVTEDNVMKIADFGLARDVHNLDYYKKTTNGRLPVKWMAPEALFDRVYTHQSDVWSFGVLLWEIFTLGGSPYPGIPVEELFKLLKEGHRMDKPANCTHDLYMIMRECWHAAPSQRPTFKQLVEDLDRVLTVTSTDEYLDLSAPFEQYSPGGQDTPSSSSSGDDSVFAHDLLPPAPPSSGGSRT
FGFR2, sequence (P21802 22-821): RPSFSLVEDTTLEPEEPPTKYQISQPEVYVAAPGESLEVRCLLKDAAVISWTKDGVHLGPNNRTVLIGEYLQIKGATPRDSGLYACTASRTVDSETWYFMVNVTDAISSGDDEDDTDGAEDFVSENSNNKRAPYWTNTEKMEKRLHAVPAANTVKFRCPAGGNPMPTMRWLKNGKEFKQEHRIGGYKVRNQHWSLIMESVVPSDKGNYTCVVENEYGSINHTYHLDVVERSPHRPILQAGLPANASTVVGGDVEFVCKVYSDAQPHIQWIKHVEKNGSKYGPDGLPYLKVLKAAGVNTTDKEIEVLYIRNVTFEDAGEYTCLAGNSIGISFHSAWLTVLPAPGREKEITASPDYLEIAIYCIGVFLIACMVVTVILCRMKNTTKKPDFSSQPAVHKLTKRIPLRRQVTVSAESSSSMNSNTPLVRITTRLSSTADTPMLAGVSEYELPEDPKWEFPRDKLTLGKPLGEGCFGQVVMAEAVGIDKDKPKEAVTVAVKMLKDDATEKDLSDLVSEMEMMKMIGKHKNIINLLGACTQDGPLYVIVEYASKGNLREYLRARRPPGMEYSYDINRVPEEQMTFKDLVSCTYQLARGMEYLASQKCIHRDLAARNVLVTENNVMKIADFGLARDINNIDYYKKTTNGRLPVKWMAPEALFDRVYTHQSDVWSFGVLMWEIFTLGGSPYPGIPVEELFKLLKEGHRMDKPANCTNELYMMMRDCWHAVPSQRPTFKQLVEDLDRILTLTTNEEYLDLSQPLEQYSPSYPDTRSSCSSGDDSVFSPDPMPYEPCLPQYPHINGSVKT

COc1cc(OC)c(F)c(N2Cc3cnc4[nH]c(CCN5CCN(C)CC5)cc4c3N(c3cccc(F)c3)C2=O)c1F [Example 228, 3-(2,6-difluoro-3,5-dimethoxyphenyl)-1-(3-fluorophenyl)-8-[2-(4-methylpiperazin-1-yl)ethyl]-1,3,4,7-tetrahydro-2H-pyrrolo[3′,2′:5,6]pyrido[4,3-d]pyrimidin-2-one]
> 7.00: all assays above

COc1cc(OC)c(F)c(N2Cc3cnc4[nH]ncc4c3N(C[C@H]3CCOC3)C2=O)c1F [Example 178, 3-(2,6-difluoro-3,5-dimethoxyphenyl)-1-[(3R)-tetrahydrofuran-3-ylmethyl]-1,3,4,7-tetrahydro-2H-pyrazolo[4′,3′:5,6]pyrido[4,3-d]pyrimidin-2-one]
> 7.00: all assays above

COCCn1cc(N2C(=O)N(c3c(F)c(OC)cc(OC)c3F)Cc3cnc4[nH]ncc4c32)cn1 [Example 174, 3-(2,6-difluoro-3,5-dimethoxyphenyl)-1-[1-(2-methoxyethyl)-1H-pyrazol-4-yl]-1,3,4,7-tetrahydro-2H-pyrazolo[4′,3′:5,6]pyrido[4,3-d]pyrimidin-2-one]
> 7.00: all assays above

COc1cc(OC)c(Cl)c(N2Cc3cnc4[nH]c(-c5cnn(C)c5)cc4c3N(C)C2=O)c1 [Example 13, 3-(2-Chloro-3,5-dimethoxyphenyl)-1-methyl-8-(1-methyl-1H-pyrazol-4-yl)-1,3,4,7-tetrahydro-2H-pyrrolo[3′,2′:5,6]pyrido[4,3-d]pyrimidin-2-one]
> 7.00: all assays above

COc1cc(OC)c(F)c(N2Cc3cnc4[nH]c(C5CCOCC5)cc4c3N(C)C2=O)c1F [Example 39, 3-(2,6-Difluoro-3,5-dimethoxyphenyl)-1-methyl-8-(tetrahydro-2H-pyran-4-yl)-1,3,4,7-tetrahydro-2H-pyrrolo[3′,2′:5,6]pyrido[4,3-d]pyrimidin-2-one]
> 7.00: all assays above

CCN1CCN(Cc2cc3c4c(cnc3[nH]2)CN(c2c(F)c(OC)cc(OC)c2F)C(=O)N4c2ccc(F)cc2)CC1 [Example 191, 3-(2,6-difluoro-3,5-dimethoxyphenyl)-1-(4-fluorophenyl)-8-[(4-ethylpiperazin-1-yl)methyl]-1,3,4,7-tetrahydro-2H-pyrrolo[3′,2′:5,6]pyrido[4,3-d]pyrimidin-2-one]
> 7.00: all assays above

COc1cc(OC)c(F)c(N2Cc3cnc4[nH]ncc4c3N(C[C@@H]3CCCO3)C2=O)c1F [Example 167, 3-(2,6-Difluoro-3,5-dimethoxyphenyl)-1-[(2S)-tetrahydrofuran-2-ylmethyl]-1,3,4,7-tetrahydro-2H-pyrazolo[4′,3′:5,6]pyrido[4,3-d]pyrimidin-2-one]
> 7.00: all assays above

COc1cc(OC)c(F)c(N2Cc3cnc4[nH]ccc4c3C(C)(C)C2=O)c1F [Example 67, 7-(2,6-difluoro-3,5-dimethoxyphenyl)-9,9-dimethyl-3,6,7,9-tetrahydro-8H-pyrrolo[2,3-c]-2,7-naphthyridin-8-one]
> 7.00: all assays above

COc1cc(OC)c(Cl)c(N2Cc3cnc4[nH]ncc4c3N(C3CC3)C2=O)c1F [Example 101, 3-(2-chloro-6-fluoro-3,5-dimethoxyphenyl)-1-cyclopropyl-1,3,4,7-tetrahydro-2H-pyrazolo[4′,3′:5,6]pyrido[4,3-d]pyrimidin-2-one]
> 7.00: all assays above

COc1cc(OC)c(F)c(N2Cc3cnc4[nH]c(CN5CCOCC5)cc4c3N(C3CCC3)C2=O)c1F [Example 182, 1-cyclobutyl-3-(2,6-difluoro-3,5-dimethoxyphenyl)-8-(morpholin-4-ylmethyl)-1,3,4,7-tetrahydro-2H-pyrrolo[3′,2′:5,6]pyrido[4,3-d]pyrimidin-2-one]
> 7.00: all assays above

COc1cc(OC)c(F)c(N2Cc3cnc4[nH]c(CN5CCN(C)CC5)cc4c3N(c3ccc(F)cc3)C2=O)c1F [Example 190, 3-(2,6-difluoro-3,5-dimethoxyphenyl)-1-(4-fluorophenyl)-8-[(4-methylpiperazin-1-yl)methyl]-1,3,4,7-tetrahydro-2H-pyrrolo[3′,2′:5,6]pyrido[4,3-d]pyrimidin-2-one]
> 7.00: all assays above

COc1cc(OC)c(F)c(N2Cc3cnc4[nH]c(CN5CCOCC5)cc4c3C(C)(C)C2=O)c1F [Example 152, 7-(2,6-difluoro-3,5-dimethoxyphenyl)-9,9-dimethyl-2-(morpholin-4-ylmethyl)-3,6,7,9-tetrahydro-8H-pyrrolo[2,3-c]-2,7-naphthyridin-8-one]
> 7.00: all assays above

CCN1CCN(Cc2cc3c4c(cnc3[nH]2)CN(c2c(F)c(OC)cc(OC)c2F)C(=O)C4(C)C)CC1 [Example 154, 7-(2,6-difluoro-3,5-dimethoxyphenyl)-2-[(4-ethylpiperazin-1-yl)methyl]-9,9-dimethyl-3,6,7,9-tetrahydro-8H-pyrrolo[2,3-c]-2,7-naphthyridin-8-one]
> 7.00: all assays above

CCN1CCN(CCc2cc3c4c(cnc3[nH]2)CN(c2c(F)c(OC)cc(OC)c2F)C(=O)C4(C)C)CC1 [Example 159, 7-(2,6-difluoro-3,5-dimethoxyphenyl)-2-[2-(4-ethylpiperazin-1-yl)ethyl]-9,9-dimethyl-3,6,7,9-tetrahydro-8H-pyrrolo[2,3-c]-2,7-naphthyridin-8-one]
> 7.00: all assays above

COc1cc(OC)c(F)c(N2Cc3cnc4[nH]ccc4c3N([C@@H]3CCC[C@H]3O)C2=O)c1F [Example 74, 3-(2,6-difluoro-3,5-dimethoxyphenyl)-1-[(1R,2R)-2-hydroxycyclopentyl]-1,3,4,7-tetrahydro-2H-pyrrolo[3′,2′:5,6]pyrido[4,3-d]pyrimidin-2-one]
> 7.00: all assays above

COc1cc(OC)c(F)c(N2Cc3cnc4[nH]c(CN5CCOCC5)cc4c3N(c3cccc(F)c3)C2=O)c1F [Example 212, 3-(2,6-difluoro-3,5-dimethoxyphenyl)-1-(3-fluorophenyl)-8-(morpholin-4-ylmethyl)-1,3,4,7-tetrahydro-2H-pyrrolo[3′,2′:5,6]pyrido[4,3-d]pyrimidin-2-one]
> 7.00: all assays above

COc1cc(OC)c(F)c(N2Cc3cnc4[nH]cc(C)c4c3N(C)C2=O)c1F [Example 104, 3-(2,6-difluoro-3,5-dimethoxyphenyl)-1,9-dimethyl-1,3,4,7-tetrahydro-2H-pyrrolo[3′,2′:5,6]pyrido[4,3-d]pyrimidin-2-one]
> 7.00: all assays above

CCN1C(=O)N(c2c(F)c(OC)cc(OC)c2F)Cc2cnc3[nH]c(COc4cccnc4)cc3c21 [Example 220, 3-(2,6-difluoro-3,5-dimethoxyphenyl)-1-ethyl-8-[(pyridin-3-yloxy)methyl]-1,3,4,7-tetrahydro-2H-pyrrolo[3′,2′:5,6]pyrido[4,3-d]pyrimidin-2-one]
> 7.00: all assays above
